From the supplement of paper PMC10307832

Legend:
Experiment in all cases: relative viability (nuclei count vs DMSO), 5 days (fraction); higher = more cells survive
[1] = compound: O=C(/C=C/c1ccccc1)NC(NC(=S)Nc1cccc2cccnc12)C(Cl)(Cl)Cl [Salubrinal] + C[C@]1(O)C[C@@H](c2nc(-c3ccc4ccc(-c5ccccc5)nc4c3)c3c(N)nccn32)C1 [Linsitinib] (partner 1 µM)
In short: (§1)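 Cells from lung cancer lines were seeded into 1536-well plates and, one day later, dosed by pin tool. Treatments were either a single drug or a fixed dose of an anchor drug with five library-drug doses (not always all listed) in √10 steps. After 5 days, nuclei were stained in a one-step fixation (final 0.05% Triton X-100, 1% formaldehyde, 1 ug/ml Hoechst) and counted on 4× images, and relative viability is the treated-to-vehicle nuclei ratio, as the median of duplicate plates.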

[2] = compound: Cc1ccc2nc(NCCN)c3ncc(C)n3c2c1 + CC1(C)CCC(c2ccc(Cl)cc2)=C(CN2CCN(c3ccc(C(=O)NS(=O)(=O)c4ccc(N[C@H](CCN5CCOCC5)CSc5ccccc5)c(S(=O)(=O)C(F)(F)F)c4)cc3)CC2)C1 [Navitoclax] (partner 0.5 µM)
In short: as §1

[3] = compound: Cc1ccc2nc(NCCN)c3ncc(C)n3c2c1 + CC(=O)c1c(C)c2cnc(Nc3ccc(N4CCNCC4)cn3)nc2n(C2CCCC2)c1=O [Palbociclib] (partner 0.5 µM)
In short: as §1

[4] = compound: O=C(/C=C/c1ccccc1)NC(NC(=S)Nc1cccc2cccnc12)C(Cl)(Cl)Cl [Salubrinal] + C[C@@H](Oc1cc(-c2cnn(C3CCNCC3)c2)cnc1N)c1c(Cl)ccc(F)c1Cl [Crizotinib] (partner 1 µM)
In short: as §1

| Cell Line | relative viability ([1]; first compound 0.08 µM) | relative viability ([1]; first compound 0.253 µM) | relative viability ([1]; first compound 0.8 µM) | relative viability ([1]; first compound 8 µM) | relative viability ([2]; first compound 0.04 µM) | relative viability ([2]; first compound 0.1265 µM) | relative viability ([2]; first compound 0.4 µM) | relative viability ([2]; first compound 1.265 µM) | relative viability ([2]; first compound 4 µM) | relative viability ([3]; first compound 0.04 µM) | relative viability ([3]; first compound 0.1265 µM) | relative viability ([3]; first compound 0.4 µM) | relative viability ([3]; first compound 1.265 µM) | relative viability ([3]; first compound 4 µM) | relative viability ([4]; first compound 0.08 µM) | relative viability ([4]; first compound 0.253 µM) | relative viability ([4]; first compound 0.8 µM) | relative viability ([4]; first compound 8 µM) | relative viability ([1]; first compound 2.53 µM) | relative viability ([4]; first compound 2.53 µM) |
| --- | --- | --- | --- | --- | --- | --- | --- | --- | --- | --- | --- | --- | --- | --- | --- | --- | --- | --- | --- | --- |
| LCLC-97TM1 | 0.222 | 0.214 | 0.221 | 0.243 | 0.57 | 0.444 | 0.39 | 0.392 | 0.487 | 0.236 | 0.217 | 0.247 | 0.218 | 0.245 | 0.382 | 0.507 | 0.446 | 0.364 |  |  |
| LK-2 | 0.558 | 0.521 | 0.762 | 0.723 | 0.831 | 0.65 | 0.886 | 0.77 | 0.789 | 0.502 | 0.811 |  |  | 0.725 | 0.249 | 0.252 | 0.247 | 0.23 | 0.757 | 0.218 |
| LOU-NH91 | 1.02 | 0.949 | 0.996 | 0.93 | 0.684 | 0.687 | 0.724 | 0.672 | 0.65 | 0.551 | 0.509 | 0.52 | 0.542 | 0.464 | 0.787 | 0.747 | 0.74 | 0.75 | 0.955 | 0.756 |
| LU99A | 0.611 | 0.545 | 0.579 | 0.515 | 0.784 | 0.822 | 0.761 | 0.883 | 0.782 | 0.468 | 0.447 | 0.434 | 0.456 | 0.41 | 0.588 | 0.635 | 0.657 | 0.5 | 0.59 | 0.528 |
| LXF-289 | 1.04 | 0.861 | 1.03 | 0.893 | 0.946 | 0.909 | 0.936 | 0.922 | 0.952 | 0.605 | 0.648 | 0.604 | 0.638 | 0.556 | 0.869 | 0.73 | 0.818 | 0.8 | 0.968 | 0.757 |
| NCI-H23 | 0.576 | 0.473 | 0.516 | 0.535 | 0.867 | 0.904 | 0.822 | 0.791 | 0.814 | 0.501 | 0.562 | 0.437 | 0.469 | 0.309 | 0.559 | 0.391 | 0.621 | 0.354 | 0.67 | 0.461 |
| NCI-H322M | 1.1 | 0.858 | 0.927 | 0.823 | 1.15 | 1.16 | 1.19 | 1.25 | 1.22 | 0.506 | 0.491 | 0.512 | 0.468 | 0.542 | 0.898 | 0.901 | 1.08 | 0.944 | 0.891 | 0.872 |
| NCI-H441 | 0.663 | 0.438 | 0.643 | 0.517 | 0.56 | 0.684 | 1.03 | 0.401 | 0.635 | 0.251 | 0.271 | 0.181 | 0.26 | 0.248 | 0.689 | 0.665 | 0.73 | 0.652 | 0.649 | 0.766 |
| NCI-H460 | 1.31 | 0.586 | 1 | 0.564 | 1.27 | 1.08 | 1.1 | 1.22 | 1.06 | 0.114 | 0.152 | 0.147 | 0.204 | 0.0833 | 1.18 | 0.891 | 0.843 | 0.541 | 0.813 | 0.909 |
| NCI-H520 | 1.16 | 0.688 | 1.25 | 1.17 | 1.19 | 1.09 | 1.12 | 1.1 | 0.953 | 0.233 | 0.222 | 0.215 | 0.212 | 0.243 | 0.816 | 0.489 | 0.771 | 0.681 | 1.12 | 0.663 |
| NCI-H647 | 1.26 | 1.26 | 1.48 | 1.27 | 1.08 | 1.06 | 1.17 | 0.804 | 0.908 | 0.41 | 0.412 | 0.405 | 0.413 | 0.296 | 1.44 | 0.891 | 1 | 0.905 | 1.07 | 1.12 |
| NCI-H727 | 0.347 | 0.33 | 0.323 | 0.323 | 0.379 | 0.475 | 0.41 | 0.238 | 0.413 | 0.648 |  | 0.603 | 0.691 | 0.722 | 0.943 | 0.559 | 1.03 | 0.84 | 0.326 | 0.999 |
| NCI-H838 | 1.25 | 0.722 | 1.08 | 0.98 | 1.23 | 1.05 | 1.16 | 1.15 | 1.12 | 0.216 | 0.233 | 0.233 | 0.223 | 0.264 | 1.08 | 0.719 | 0.854 | 0.82 | 1.13 | 0.951 |
| NCI-H1355 | 0.976 | 0.797 | 0.856 | 0.751 | 0.909 | 0.942 | 0.924 | 0.9 | 0.806 | 0.46 | 0.4 | 0.406 | 0.409 | 0.376 | 1.18 | 1.12 | 1.12 | 1.03 | 0.89 | 1.12 |
| NCI-H1437 | 1.27 | 0.691 | 1.19 | 0.853 | 1.08 | 1.03 | 1.12 | 1.07 | 0.992 | 0.3 | 0.315 | 0.296 | 0.248 | 0.287 | 0.975 | 0.77 | 1.02 | 0.758 | 1.06 | 0.909 |
| NCI-H1651 | 1.09 | 0.692 | 1.06 | 0.968 | 1.02 | 1.02 | 1.19 | 1.18 | 0.955 | 0.545 | 0.515 | 0.518 | 0.512 | 0.512 | 0.923 | 0.864 | 0.925 | 0.9 |  | 0.858 |
